# Reference: ChEMBL document CHEMBL1157187, “Chemical synthesis of 2beta-amino-5alpha-androstane-3alpha,17beta-diol N-derivatives and their antiproliferative effect on HL-60 human leukemia cells” (Bioorg Med Chem, 2008)
# Key:
# HL-60 [1] = assay: Growth inhibition of human HL60 cells at 1 uM after 3 days; assay type: functional; settings: HL-60, 72 h
# HL-60 [2] = assay: Growth inhibition of human HL60 cells at 10 uM after 3 days; assay type: functional; settings: HL-60, 72 h
Compound,inhibition at 1 µM (HL-60 [1]) [%],inhibition at 10 µM (HL-60 [2]) [%]
CC(=O)N1CCN([C@H]2C[C@@]3(C)[C@@H](CC[C@@H]4[C@@H]3CC[C@]3(C)[C@@H](O)CC[C@@H]43)C[C@@H]2O)CC1,0,0
CCN1CCN([C@H]2C[C@@]3(C)[C@@H](CC[C@@H]4[C@@H]3CC[C@]3(C)[C@@H](O)CC[C@@H]43)C[C@@H]2O)CC1,0,4.8
CCCC(=O)N1CCN([C@H]2C[C@@]3(C)[C@@H](CC[C@@H]4[C@@H]3CC[C@]3(C)[C@@H](O)CC[C@@H]43)C[C@@H]2O)CC1,0,4.6
CC(C)C(=O)N1CCN([C@H]2C[C@@]3(C)[C@@H](CC[C@@H]4[C@@H]3CC[C@]3(C)[C@@H](O)CC[C@@H]43)C[C@@H]2O)CC1,0,1.1
CN1CCN([C@H]2C[C@@]3(C)[C@@H](CC[C@@H]4[C@@H]3CC[C@]3(C)[C@@H](O)CC[C@@H]43)C[C@@H]2O)CC1,0,16.2
CCOCCCN[C@H]1C[C@@]2(C)[C@@H](CC[C@@H]3[C@@H]2CC[C@]2(C)[C@@H](O)CC[C@@H]32)C[C@@H]1O,0,10.8
CCCCCCCN[C@H]1C[C@@]2(C)[C@@H](CC[C@@H]3[C@@H]2CC[C@]2(C)[C@@H](O)CC[C@@H]32)C[C@@H]1O,10.1,82.3
CCCCCN1CCN([C@H]2C[C@@]3(C)[C@@H](CC[C@@H]4[C@@H]3CC[C@]3(C)[C@@H](O)CC[C@@H]43)C[C@@H]2O)CC1,0,7.7
CCCCC(=O)N1CCN([C@H]2C[C@@]3(C)[C@@H](CC[C@@H]4[C@@H]3CC[C@]3(C)[C@@H](O)CC[C@@H]43)C[C@@H]2O)CC1,0,7.4
CC(C)N[C@H]1C[C@@]2(C)[C@@H](CC[C@@H]3[C@@H]2CC[C@]2(C)[C@@H](O)CC[C@@H]32)C[C@@H]1O,0,0
CCCCCCCCCCN[C@H]1C[C@@]2(C)[C@@H](CC[C@@H]3[C@@H]2CC[C@]2(C)[C@@H](O)CC[C@@H]32)C[C@@H]1O,0,96.9
CCC(=O)N1CCN([C@H]2C[C@@]3(C)[C@@H](CC[C@@H]4[C@@H]3CC[C@]3(C)[C@@H](O)CC[C@@H]43)C[C@@H]2O)CC1,0,0
CC(C)CN[C@H]1C[C@@]2(C)[C@@H](CC[C@@H]3[C@@H]2CC[C@]2(C)[C@@H](O)CC[C@@H]32)C[C@@H]1O,0,0
CCCCCCCCCCCN[C@H]1C[C@@]2(C)[C@@H](CC[C@@H]3[C@@H]2CC[C@]2(C)[C@@H](O)CC[C@@H]32)C[C@@H]1O,0,96.3
C[C@]12C[C@H](N3CCN(c4ccc(F)cc4)CC3)[C@@H](O)C[C@@H]1CC[C@@H]1[C@@H]2CC[C@]2(C)[C@@H](O)CC[C@@H]12,0,10.1
CC(C)CC(=O)N1CCN([C@H]2C[C@@]3(C)[C@@H](CC[C@@H]4[C@@H]3CC[C@]3(C)[C@@H](O)CC[C@@H]43)C[C@@H]2O)CC1,0,5.5
CCCCN[C@H]1C[C@@]2(C)[C@@H](CC[C@@H]3[C@@H]2CC[C@]2(C)[C@@H](O)CC[C@@H]32)C[C@@H]1O,0,3.1
CCCCCCCCCN[C@H]1C[C@@]2(C)[C@@H](CC[C@@H]3[C@@H]2CC[C@]2(C)[C@@H](O)CC[C@@H]32)C[C@@H]1O,3.9,89.9
C[C@]12C[C@H](N3CCN(c4ccccc4)CC3)[C@@H](O)C[C@@H]1CC[C@@H]1[C@@H]2CC[C@]2(C)[C@@H](O)CC[C@@H]12,7,36.6
C[C@]12C[C@H](NCC34CC5CC(CC(C5)C3)C4)[C@@H](O)C[C@@H]1CC[C@@H]1[C@@H]2CC[C@]2(C)[C@@H](O)CC[C@@H]12,6.4,85.8
C[C@]12C[C@H](N3CCN(C(=O)C4CCCCC4)CC3)[C@@H](O)C[C@@H]1CC[C@@H]1[C@@H]2CC[C@]2(C)[C@@H](O)CC[C@@H]12,0,3.9
C[C@]12C[C@H](N3CCN(CC4CCCCC4)CC3)[C@@H](O)C[C@@H]1CC[C@@H]1[C@@H]2CC[C@]2(C)[C@@H](O)CC[C@@H]12,0,4
C[C@]12C[C@H](N3CCN(CCO)CC3)[C@@H](O)C[C@@H]1CC[C@@H]1[C@@H]2CC[C@]2(C)[C@@H](O)CC[C@@H]12,0.8,17.7
